Here are results for 24 compounds from ChEMBL document CHEMBL3044609, “Synthesis and Acaricidal Activities of New 2-Polyfluorophenylbenzazole Derivatives” (2002).

Assay [1] relates to Tetranychus urticae. The experiment in a line: Ratio of LC50 for kelthane-resitant strain Tetranychus urticae (two-spotted spider mite) to LC50 for kelthane-sensitive strain Tetranychus urticae assessed as adult mortality measured after 2 days by leaf disk method. It counts as functional.
Assay [2] relates to Tetranychus urticae. Put plainly: Acaricidal activity against Tetranychus urticae (two-spotted spider mite) on strawberry plant assessed as average number of adult females mites at 800 fold dilutions measured after 30 days (reference value: 100%). It counts as functional.
Assay [3] deals with Tetranychus urticae. The experiment in a line: Acaricidal activity against kelthane-resitant strain Tetranychus urticae (two-spotted spider mite) in compound treated snap bean leaves assessed as egg mortality measured after 2 days by leaf disk method. In kind it is functional. As to conditions: foliar, 48 h.
The subject of assay [4] is Tetranychus urticae. The experiment in a line: Acaricidal activity against Tetranychus urticae (two-spotted spider mite) on strawberry plant assessed as average number of adult females mites at 400 fold dilutions measured after 8 days (reference value: 100%). It counts as functional.
For assay [5], the system named is Tetranychus urticae. Put plainly: Acaricidal activity against Tetranychus urticae (two-spotted spider mite) in compound treated snap bean leaves assessed as egg mortality measured after 2 days by leaf disk method. It counts as functional. The note with it: foliar, 48 h.
The test system of assay [6] is Tetranychus urticae. Put plainly: Acaricidal activity against Tetranychus urticae (two-spotted spider mite) on strawberry plant assessed as average number of adult females mites at 800 fold dilutions measured after 16 days (reference value: 100%). It counts as functional.
In assay [7] the test system is Tetranychus urticae. Put plainly: Acaricidal activity against kelthane-resitant strain Tetranychus urticae (two-spotted spider mite) in compound treated snap bean leaves assessed as adult mortality measured after 2 days by leaf disk method. It counts as functional. As to conditions: foliar, 48 h.
Assay [8] has as its system Panonychus citri. Put plainly: Acaricidal activity against Panonychus citri in compound treated lemon leaf assessed as adult mortality. In kind it is functional, organism-based.
Assay [9] deals with Tetranychus urticae. The experiment in a line: Acaricidal activity against Tetranychus urticae (two-spotted spider mite) on strawberry plant assessed as average number of adult females mites at 400 fold dilutions measured after 3 days (reference value: 100%). It counts as functional.
Assay [10] concerns Tetranychus urticae. Put plainly: Acaricidal activity against Tetranychus urticae (two-spotted spider mite) in compound treated snap bean leaves assessed as adult mortality measured after 2 days by leaf disk method. It counts as functional. The note with it: foliar, 48 h.
In assay [11] the test system is Tetranychus urticae. Put plainly: Ratio of LC50 for kelthane-resitant strain Tetranychus urticae (two-spotted spider mite) to LC50 for kelthane-sensitive strain Tetranychus urticae (two-spotted spider mite) assessed as egg mortality measured after 2 days by leaf disk method. In kind it is functional.
Assay [12] relates to Tetranychus urticae. Put plainly: Acaricidal activity against Tetranychus urticae (two-spotted spider mite) on strawberry plant assessed as average number of adult females mites at 400 fold dilutions measured after 23 days (reference value: 100%). In kind it is functional.
For assay [13], the system named is Tetranychus urticae. Put plainly: Acaricidal activity against Tetranychus urticae (two-spotted spider mite) on strawberry plant assessed as average number of adult females mites at 400 fold dilutions measured after 30 days (reference value: 100%). In kind it is functional.
The test system of assay [14] is Tetranychus urticae. The experiment in a line: Acaricidal activity against kelthane-sensitive strain Tetranychus urticae (two-spotted spider mite) in compound treated snap bean leaves assessed as adult mortality measured after 2 days by leaf disk method. In kind it is functional. As to conditions: foliar, 48 h.
The subject of assay [15] is Tetranychus urticae. The experiment in a line: Acaricidal activity against Tetranychus urticae (two-spotted spider mite) on strawberry plant assessed as average number of adult females mites at 800 fold dilutions measured after 3 days (reference value: 100%). It counts as functional.
In assay [16] the test system is Tetranychus urticae. Put plainly: Acaricidal activity against Tetranychus urticae (two-spotted spider mite) on strawberry plant assessed as average number of adult females mites at 800 fold dilutions measured after 8 days (reference value: 100%). It counts as functional.
Assay [17] deals with Tetranychus urticae. The experiment in a line: Acaricidal activity against Tetranychus urticae (two-spotted spider mite) on strawberry plant assessed as average number of adult females mites at 800 fold dilutions measured after 23 days (reference value: 100%). In kind it is functional.
Assay [18] relates to Tetranychus urticae. Put plainly: Acaricidal activity against Tetranychus urticae (two-spotted spider mite) on strawberry plant assessed as average number of adult females mites at 400 fold dilutions measured after 16 days (reference value: 100%). In kind it is functional.
Assay [19] concerns Tetranychus urticae. The experiment in a line: Acaricidal activity against kelthane-sensitive strain Tetranychus urticae (two-spotted spider mite) in compound treated snap bean leaves assessed as egg mortality measured after 2 days by leaf disk method. The note with it: foliar, 48 h. In kind it is functional.
The subject of assay [20] is Tetranychus urticae. The experiment in a line: Acaricidal activity against Tetranychus urticae (two-spotted spider mite) on strawberry plant assessed as average number of adult females mites at 1000 fold dilutions measured after 30 days (reference value: 100%). In kind it is functional.
Assay [21] deals with Tetranychus urticae. Put plainly: Acaricidal activity against Tetranychus urticae (two-spotted spider mite) on strawberry plant assessed as average number of adult females mites at 1000 fold dilutions measured after 8 days (reference value: 100%). It counts as functional.
In assay [22] the test system is Tetranychus urticae. Put plainly: Acaricidal activity against Tetranychus urticae (two-spotted spider mite) on strawberry plant assessed as average number of adult females mites at 1000 fold dilutions measured after 16 days (reference value: 100%). In kind it is functional.
Assay [23] deals with Tetranychus urticae. Put plainly: Acaricidal activity against Tetranychus urticae (two-spotted spider mite) on strawberry plant assessed as average number of adult females mites at 1000 fold dilutions measured after 3 days (reference value: 100%). In kind it is functional.
Assay [24] relates to Tetranychus urticae. Put plainly: Acaricidal activity against Tetranychus urticae (two-spotted spider mite) on strawberry plant assessed as average number of adult females mites at 1000 fold dilutions measured after 23 days (reference value: 100%). It counts as functional.

≈ marks a conversion by molar mass, not a printed value. Calls of active or inactive are those of the source. The calls are words filed in the database; no cut-off is given here.

Usually LC50 stands for the concentration that kills 50% of the test population. With `Cc1ccc2oc(-c3cc(F)c(F)c(Cl)c3F)nc2c1`, the RatioLC50 in [1] stood at 1.69; in assay [11], 0.84. Further, the Activity in assay [2] was determined as 65%; in assay [4], 108.8%; in assay [6], 75.3%; in [9], 93.3%; in [12], 38.9%; in assay [13], 43.9%. In addition, the Activity came to 93.7% in assay [15], 86.5% in [16], 51.4% in assay [17] and 71.1% in [18]. The 50% lethal concentration (LC50) in [3] worked out at 17.1 µg/mL (≈ 57.4 µM); in assay [5], 154 µg/mL (≈ 517 µM); in assay [7] it was 121 µg/mL (≈ 406 µM); in [10] it was 35 µg/mL (≈ 118 µM); in assay [14] it was 71.6 µg/mL (≈ 241 µM); in assay [19], 20.4 µg/mL (≈ 68.5 µM). Moreover, the result in [8] was Active.

As to `Fc1cc(-c2nc3ccccc3s2)c(F)c(Cl)c1F`, the LC50 in [5] came to 225 µg/mL (≈ 751 µM); in [10], 35 µg/mL (≈ 117 µM).

Turning to `Cc1ccc2nc(-c3cc(F)c(F)c(Cl)c3F)sc2c1`, the figures for the LC50 in assay [5] and in assay [10] were 287 µg/mL (≈ 915 µM) and 155 µg/mL (≈ 494 µM), respectively.

For `Cc1ccc2oc(-c3ccccc3F)nc2c1`, the LC50 in assay [5] is above 500 µg/mL; in assay [10], 88 µg/mL (≈ 387 µM).

For the compound `OC(c1ccc(Cl)cc1)(c1ccc(Cl)cc1)C(Cl)(Cl)Cl` [DICOFOL], the RatioLC50 in [1] worked out at 18.65; in assay [11], 1.13. The LC50 in assay [3] stood at 90.9 µg/mL (≈ 245 µM); in assay [7], 296 µg/mL (≈ 800 µM); in [14] it was 15.9 µg/mL (≈ 42.9 µM); in assay [19], 80.7 µg/mL (≈ 218 µM).

On to `CCc1nn(C)c(C(=O)NCc2ccc(C(C)(C)C)cc2)c1Cl` [TEBUFENPYRAD], for which the Activity is on record as 4.5% in assay [20]; 7.8% in assay [21]; 5.6% in assay [22]; 4.3% in [23]; 13.5% in [24].

Consider `Fc1ccc(-c2nc3ccccc3s2)cc1F`, for which the LC50 is above 500 µg/mL in [5] and below 125 µg/mL in assay [10].

As to `Cc1ccc2nc(-c3cc(F)c(F)c(F)c3F)sc2c1`, the LC50 in assay [5] was 205 µg/mL (≈ 690 µM); in assay [10] it was 75 µg/mL (≈ 252 µM).

In the case of `Fc1cc(-c2nc3cc(Cl)ccc3o2)c(F)c(F)c1F`, the LC50 in assay [5] came to 202 µg/mL (≈ 670 µM); in assay [10], 100 µg/mL (≈ 332 µM).

`Fc1cc(-c2nc3ccc(Br)cc3s2)c(F)c(F)c1F`: the LC50 in assay [5] was found to be 555 µg/mL (≈ 1530 µM); in [10], 93 µg/mL (≈ 257 µM).

On to `Cc1ccc2oc(-c3cccc(F)c3)nc2c1`, for which the results for the 50% lethal concentration (LC50) in [5] and in assay [10] were above 500 µg/mL and 383 µg/mL (≈ 1690 µM), respectively.

As for `Fc1cc(-c2nc3cc(Cl)ccc3o2)c(F)c(Cl)c1F`, the LC50 came out at 173 µg/mL (≈ 544 µM) in assay [5] and 37 µg/mL (≈ 116 µM) in assay [10].

Turning to `Cc1ccc2oc(-c3cc(F)c(F)cc3F)nc2c1`, the values for the median lethal concentration (LC50) in assay [5] and in assay [10] were 173 µg/mL (≈ 657 µM) and 174 µg/mL (≈ 661 µM), respectively.

In the case of `c1ccc(-c2nc3ccccc3o2)cc1` [2-PHENYLBENZO[D]OXAZOLE], the LC50 in assay [5] and in assay [10] was above 500 µg/mL throughout.

Consider `Fc1cc(-c2nc3ccccc3o2)c(F)c(F)c1F`, for which the figures for the median lethal concentration (LC50) in assay [5] and in [10] were 351 µg/mL (≈ 1310 µM) and 151 µg/mL (≈ 565 µM), respectively.

For `Fc1c(F)c(F)c(-c2nc3ccccc3s2)c(F)c1F` [2-(PERFLUOROPHENYL)BENZO[D]THIAZOLE], the LC50 was found to be 124 µg/mL (≈ 412 µM) in [5] and 26 µg/mL (≈ 86.3 µM) in [10].

As to `Fc1cc(-c2nc3ccccc3o2)c(F)c(Cl)c1F`, the results for the LC50 in [5] and in assay [10] were 257 µg/mL (≈ 906 µM) and 66 µg/mL (≈ 233 µM), respectively.

With `c1ccc(-c2nc3ccccc3s2)cc1` [2-PHENYLBENZO[D]THIAZOLE], the LC50 is above 500 µg/mL in [5] and 211 µg/mL (≈ 999 µM) in assay [10].

Turning to `Cc1ccc2oc(-c3cc(F)c(F)c(F)c3F)nc2c1`, the results for the LC50 in [5] and in [10] were above 500 µg/mL and 19 µg/mL (≈ 67.6 µM), respectively.

Take `Cc1ccc2oc(-c3ccc(F)cc3)nc2c1`: the LC50 in assay [5] and in [10] was above 500 µg/mL each time.

For the compound `Cc1cc(C)c2oc(-c3cc(F)c(F)c(Cl)c3F)nc2c1`, the LC50 in assay [5] is above 500 µg/mL; in [10], below 31 µg/mL.

Regarding `Cc1ccc2oc(-c3ccccc3)nc2c1`, the LC50 in assay [5] and in assay [10] was above 500 µg/mL throughout.

`Fc1cc(-c2nc3ccccc3s2)c(F)c(F)c1F`: the LC50 turned out to be 205 µg/mL (≈ 724 µM) in assay [5] and 102 µg/mL (≈ 360 µM) in assay [10].

In the case of `Cc1ccc2nc(-c3cc(F)c(F)c(Cl)c3F)oc2c1`, the LC50 in assay [5] is above 500 µg/mL; in assay [10], 48 µg/mL (≈ 161 µM).
